Read-outs that look alike come from different tables or passages of the source.
Key:
[1] = tested on: T1, rLacC; assay: spectrophotometric oxidation assay, […] nm, non-linear fit; type: biochemical, Trametes hirsuta; settings: 0.1 M citrate-phosphate pH 4.5, 24°C
T1 construct: gene lacC; recombinant secreted laccase, obtained previously (Savinova et al., 2017)

[2] = tested on: T1, rLacC; assay: as above; type: biochemical, Trametes hirsuta; settings: 0.1 M citrate-phosphate pH 4.5, 24°C; remark: listed apart in the source
[3] = target: T2, LacA (Trametes hirsuta, UniProt A0A0A7M685); assay: as above; type: biochemical; settings: 0.1 M citrate-phosphate pH 4.5, 24°C; cited from earlier work
T2 construct: native major secreted laccase, purified previously (Savinova et al., 2017)
T2 sequence (A0A0A7M685 22-520): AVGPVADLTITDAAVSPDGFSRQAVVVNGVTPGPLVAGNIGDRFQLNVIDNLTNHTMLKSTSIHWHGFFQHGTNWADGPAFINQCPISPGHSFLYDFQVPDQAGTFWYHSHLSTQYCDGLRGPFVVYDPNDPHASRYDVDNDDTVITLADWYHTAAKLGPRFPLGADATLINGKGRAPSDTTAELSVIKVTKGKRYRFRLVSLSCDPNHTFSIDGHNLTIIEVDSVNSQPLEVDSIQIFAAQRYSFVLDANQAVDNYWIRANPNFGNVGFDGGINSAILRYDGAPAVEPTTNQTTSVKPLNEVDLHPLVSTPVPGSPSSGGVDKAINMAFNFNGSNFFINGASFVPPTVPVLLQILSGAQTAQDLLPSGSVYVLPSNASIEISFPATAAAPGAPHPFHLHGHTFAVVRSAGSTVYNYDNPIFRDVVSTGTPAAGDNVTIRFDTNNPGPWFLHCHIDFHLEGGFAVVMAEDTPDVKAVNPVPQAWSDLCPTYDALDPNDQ

[4] = tested on: T1, rLacC; assay: as above; type: biochemical, Trametes hirsuta; settings: 0.1 M citrate-phosphate pH 4.5, 24°C; remark: listed apart in the source
[5] = tested on: T1, rLacC; assay: as above; type: biochemical, Trametes hirsuta; settings: 0.1 M citrate-phosphate pH 4.5, 24°C; remark: listed apart in the source
[6] = tested on: T3, rLacC; settings: read-out: KM, μM / rLacC; 0.1 M citrate-phosphate pH 4.5, 24°C
T3 construct: gene lacC

## COc1ccccc1O [Guaiacol]
[1]
  Km: 15700 ± 337 µM

## Oc1ccccc1O [Catechol]
[2]
  Km: 16300 ± 1720 µM

## COc1cc(/C=C/C(=O)O)cc(OC)c1O [Synapic acid]
[3]
  Km: 17 ± 2 µM
[4]
  Km: 71 ± 14 µM

## COc1cccc(OC)c1O [2,6-DMP, 2,6-dimethoxyphenol]
[5]
  Km: 589 ± 75 µM

## COc1cc(/C=C/C(=O)O)ccc1O [Ferulic acid]
[6]
  Km: 173 ± 38 µM

— paper PMC6374638, “Evolutionary Relationships Between the Laccase Genes of Polyporales: Orthology-Based Classification of Laccase Isozymes and Functional Insight From Trametes hirsuta” (Frontiers in Microbiology, 2019)
